From ChEMBL document CHEMBL1148484, “Design, synthesis, and biological evaluation of doxorubicin-formaldehyde conjugates targeted to breast cancer cells” (J Med Chem, 2004) come the findings set out here.

One test has as its system MDA-MB-231. As to the kind of experiment: cells. The settings on record: Homo sapiens.
The next test concerns MCF7. As to the kind of experiment: cells. The settings on record: Homo sapiens.
Another test relates to NCI/ADR-RES. The experiment in a line: cells. The settings on record: Homo sapiens.
The target in a further test is Estrogen receptor (Homo sapiens, UniProt Q92731+P03372). The settings on record: mcf-7.
For a further test, the system named is MDA-MB-435. As to the kind of experiment: cells. The settings on record: Homo sapiens.

SMILES strings stand for the structures.

Description for Estrogen receptor: Inhibition of [3H]E2 binding to estrogen receptor alpha in MCF-7 cell lysate
Description for MCF7: Inhibition of estrogen receptor positive MCF-7 breast cancer cell proliferation
Description for MDA-MB-231: Inhibition of estrogen receptor negative MDA-MB-231 breast cancer cell proliferation
Description for MDA-MB-435: Inhibition of MDA-MB-435 breast cancer cell proliferation
Description for NCI/ADR-RES: Inhibition of MCF-7/Adr breast cancer cell proliferation

As to `CC/C(=C(/c1ccc(O)cc1)c1ccc(OCCN(C)CCOCCOCCO/N=C/c2ccc(O)c(C(=O)NCNC3CC(O[C@H]4C[C@](O)(C(=O)CO)Cc5c(O)c6c(c(O)c54)C(=O)c4c(OC)cccc4C6=O)OC(C)C3O)c2)cc1)c1ccccc1` (some centres undefined), the IC50 is 30 nM in the test with MDA-MB-231; 30 nM in the test with MCF7; 60 nM in the test with NCI/ADR-RES; 200 nM against Estrogen receptor; 40 nM in the test on MDA-MB-435.

`CCC(c1ccccc1)C(c1ccc(O)cc1)c1ccc(OCCN(C)CCOCCO/N=C/c2ccc(O)c(C(N)=O)c2)cc1` (centres undefined) gave an IC50 at Estrogen receptor of 150 nM.

`CC/C(=C(/c1ccc(O)cc1)c1ccc(OCCN(C)CCO/N=C/c2ccc(O)c(C(=O)NCNC3CC(O[C@H]4C[C@](O)(C(=O)CO)Cc5c(O)c6c(c(O)c54)C(=O)c4c(OC)cccc4C6=O)OC(C)C3O)c2)cc1)c1ccccc1` (some centres undefined): the IC50 is 40 nM with MDA-MB-231; 80 nM in the test on MCF7; 250 nM in the test with NCI/ADR-RES; 300 nM on Estrogen receptor; 60 nM in the test on MDA-MB-435.

Consider `CC/C(=C(/c1ccc(O)cc1)c1ccc(OCN(C)C)cc1)c1ccccc1`, for which the IC50 in the test with MDA-MB-231 was 30000 nM; in the test on MCF7 it was 300 nM; in the test with NCI/ADR-RES, 40000 nM; on Estrogen receptor, 5 nM; with MDA-MB-435, 20000 nM.

Consider `CC/C(=C(/c1ccc(O)cc1)c1ccc(OCCN(C)CCOCCO/N=C/c2ccc(O)c(C(=O)NCNC3CC(O[C@H]4C[C@](O)(C(=O)CO)Cc5c(O)c6c(c(O)c54)C(=O)c4c(OC)cccc4C6=O)OC(C)C3O)c2)cc1)c1ccccc1` (some centres undefined), for which the concentration for half-maximal inhibition (IC50) stood at 30 nM in the test with MDA-MB-231; 20 nM in the test with MCF7; 70 nM in the test with NCI/ADR-RES; 300 nM against Estrogen receptor; 40 nM in the test with MDA-MB-435.

Consider `CC/C(=C(/c1ccc(O)cc1)c1ccc(OCN(C)C)cc1)c1ccccc1.COc1cccc2c1C(=O)c1c(O)c3c(c(O)c1C2=O)C[C@@](O)(C(=O)CO)C[C@@H]3O[C@H]1C[C@H](N)[C@H](O)[C@H](C)O1`, for which the IC50 was 100 nM in the test on MDA-MB-231, 70 nM in the test with MCF7, 2000 nM in the test with NCI/ADR-RES and 100 nM with MDA-MB-435.

On to `CCC(c1ccccc1)C(c1ccc(O)cc1)c1ccc(OCCN(C)CCOCCOCCO/N=C/c2ccc(O)c(C(N)=O)c2)cc1` (centres undefined), for which, at Estrogen receptor, the IC50 came to 150 nM.

`COc1cccc2c1C(=O)c1c(O)c3c(c(O)c1C2=O)C[C@@](O)(C(=O)CO)C[C@@H]3O[C@H]1C[C@H](N)[C@H](O)[C@H](C)O1` [DOXORUBICIN]: the IC50 was 300 nM with MDA-MB-231, 10000 nM in the test with NCI/ADR-RES and 150 nM with MDA-MB-435.

Take `CC/C(=C(\c1ccccc1)c1ccc(OCCN(C)C)cc1)c1ccccc1` [TAMOXIFEN]: the IC50 in the test on MDA-MB-231 amounted to 80 nM; in the test on MCF7, 70 nM; in the test on NCI/ADR-RES, 2000 nM; in the test on MDA-MB-435, 50 nM.

In turn, `CCC(c1ccccc1)C(c1ccc(O)cc1)c1ccc(OCCN(C)CCO/N=C/c2ccc(O)c(C(N)=O)c2)cc1` (centres undefined) returned an IC50 at Estrogen receptor of 300 nM.
